Data: patent US20230181677A1, “POLYPEPTIDE FOR PROMOTING BONE REGENERATION OR BONE FORMATION AND ITS USE” (SEWON BIOTECHNOLOGY INC., priority 2016, published 2023)
Where no end group is shown, it is not given here.

Experiments:
[1] = test system: undifferentiated stem cells; assay: ALP activity of undifferentiated stem cells cultured on titanium disk (osteocyte differentiation); type: cell-based; conditions: peptide 10 μM, 6 hours then osteoblast differentiation medium 48 hours, versus control (C)
Excerpt: As described above, on the surface of hard structures such as bones or on the surface where cells are difficult to attach to, the peptide of the present invention can promotes the cell adhesion which is a key mechanism for the regeneration. […] Therefore, in this Example, various adhesive peptides developed and disclosed in the present disclosure were used to test their activity for promoting the osteocyte differentiation. For this, each peptide was mixed with undifferentiated stem cells, which was then cultured on a titanium osteoconductive surface, and analyzed the cells for the differentiation into osteocytes. Two×10^4 cells/ml treated with trypsin and mixed with peptide (10 μM) were cultured on a dental titanium disk having a diameter of 10 mm in size for 6 hours, after which the medium was replaced with osteoblast differentiation medium and the cells were cultured for 48 hours. Then the discs were recovered and the cells were lysed and ALP (Alkaline phosphatase) activity was measured.

[2] = test system: femur muscle of mouse; assay: ectopic ossification analysis, ACS graft in femur muscle, micro-CT; type: in vivo; conditions: BMP-2 2 μg left femur, peptide 600 μg right femur; n=10; eight weeks after operation
Protocol: Eight weeks after the operation, animals were euthanized and micro-CT analysis was performed to observe calcification (ectopic ossification) in the muscle. All 10 animals were used.

| Substance | ALP (Alkaline phosphatase) activity [1] | ectopic ossification (calcification in the muscle), micro-CT [2] |
| --- | --- | --- |
| (R) 15-QLVVKFRALPC (RRRRRRRRRRRRRRRQLVVKFRALPC) [SEQ ID NO: 41, peptide positively charged at the N-terminus containing 15 arginine residues] | highest ALP activity |  |
| RQLVVKFRALPC [present peptide] |  | no ectopic ossification in all the mice treated |
